Measured values from patent publication US9273095B2, “Antibiotic peptide and preparation method therefor and application therefor” (priority 2011, dated 2016).
Marks after values point to notes of the source that are not given here. Non-standard residues stand in square brackets, D forms with d. Residues, ends and D or L forms follow the SMILES beside them.

What was measured:
[1] = tested on: Candida albicans and Escherichia; assay: Therapeutic experiment of injection on mice with multiple mixed infections, survival time; assay type: in vivo, ICR mice; conditions: 30 mg/kg, n = 20
Method: There are 60 male and 60 female ICR mice with the weight ranging from 18 g to 22 g. According to their weight, they are randomly divided into 6 groups of 20 mice: blank control group, negative control group, Levofloxacin positive control group, and high, middle and low dose of PL-18 (SEQ ID NO: 1) group. With trinitrophenal marking method, all the mice are raised with ordinary animal feeds in the ordinary animal houses and they can drink water freely. Alternating of light and dark is conducted every 12 hours.
2. Infected Strains: Candida albicans and Escherichia
PL-18 (SEQ ID NO: 1) freeze-dried powder injection (supplied by Jiangsu ProteLight Pharmaceutical & Biotechnology Co., LTD.), Levofloxacin Hydrochloride and Sodium Chloride Injection (supplied by Yangtze River Pharmaceutical Group) and 0.9% Sodium Chloride Injection (supplied by Chifeng Rongjitang Pharmaceutical CO., Ltd.)
(1) The preparation of bacterial suspension is the same as above.
(2) The Candida albicans suspension cultured overnight is diluted to 1×10^6CFU/ml with Sodium Chloride and 5×10^5CFU of which is injected into abdominal cavity of every mouse; the Escherichia suspension cultured overnight is diluted to 2×10^8CFU/ml and 1×10^7CFU of which is injected into abdominal cavity of every mouse to make model with mixed infections.
(3) The blank control group is injected with normal saline into their abdominal cavity, the positive control group is injected with Levofloxacin into their abdominal cavity.
(4) Administration: The drugs are administered according to weight right after the model is ready. All the groups except the blank and the infected negative control group are injected with different dosage of different injections through caudal vena twice a day successively for three days, and they are observed for fourteen days.
(5) Observe death of the animals and record their survival time.

[2] = tested on: red cell suspension from healthy volunteers; assay: Hemolytic activity test; assay type: cell-based, human; conditions: for Hemolytic activity, absorbancy (OD value) at 570 nm: 4 hours at 37° C., OD higher than 0.1 is hemolytic, n = 3
Method: (1) Samples are serial diluted with sterile PBS to 1000, 500, 250, 125, 64, 32, 16, 8, 4 μg/ml in turn and spread in 96-well plates, 100 μl per orifice.
(2) We use distilled water as positive control, sterile PBS as negative control and blank orifice with 200 μl PBS solution added. Each concentration above is made in triplicate.
(3) We take 3 ml whole blood from healthy volunteers and washed it with sterile PBS three times to prepare fresh 2% concentration red cell suspension. Then we added 100 μl red cell suspension into each orifice and made them cultured for 4 hours at 37° C. in the incubator. After centrifuged by plate-swashing centrifuge, the supernatant liquid is collected and measured absorbancy (OD value) at a wavelength of 570 nm. Then we compared the hemolytic efficiency of these concentrations.
(4) According to the documents standard, OD value which is higher than 0.1 is hemolytic concentration.

Row | SMILES | Mean survival Time ([1]; observed fourteen days) | Mortality of mice in different days after infection ([1]; day 1) | Mortality of mice in different days after infection ([1]; day 2) | Mortality of mice in different days after infection ([1]; day 3) | Mortality of mice in different days after infection ([1]; day 4) | Mortality of mice in different days after infection ([1]; day 5) | Hemolytic activity, absorbancy (OD value) at 570 nm ([2]; peptide 7.8125 μg/ml) | Hemolytic activity, absorbancy (OD value) at 570 nm ([2]; peptide 15.625 μg/ml) | Hemolytic activity, absorbancy (OD value) at 570 nm ([2]; peptide 31.25 μg/ml) | Hemolytic activity, absorbancy (OD value) at 570 nm ([2]; peptide 62.5 μg/ml) | Hemolytic activity, absorbancy (OD value) at 570 nm ([2]; peptide 125 μg/ml) | Hemolytic activity, absorbancy (OD value) at 570 nm ([2]; peptide 250 μg/ml) | Hemolytic activity, absorbancy (OD value) at 570 nm ([2]; peptide 500 μg/ml) | Hemolytic activity, absorbancy (OD value) at 570 nm ([2]; peptide 1000 μg/ml) | hemolytic toxicity (in words) ([2]; summary of Table 9)
1 | C[C@H]1COc2c(N3CCN(C)CC3)c(F)cc3c(=O)c(C(=O)O)cn1c23 [Levofloxacin, levofloxacin, reference compound] | 3.9* day | 8 | 6 | 2 | 0 | 0 |  |  |  |  |  |  |  |  | 
2 | CC[C@@H](C)[C@@H](NC(=O)[C@@H](CCCCN)NC(=O)[C@@H](CO)NC(=O)[C@@H](Cc1ccccc1)NC(=O)[C@@H](CC(C)C)NC(=O)[C@@H](CCCCN)NC(=O)[C@@H](CCC(=O)O)NC(=O)[C@@H](CC(C)C)NC(=O)[C@@H](CCCNC(=N)N)NC(=O)[C@@H](CCCCN)NC(=O)[C@@H](Cc1ccccc1)NC(C)=O)C(=O)N[C@H](Cc1c[nH]c2ccccc12)C(=O)N[C@H](CC(N)=O)C(=O)N[C@H](Cc1c[nH]c2ccccc12)C(=O)N[C@H](CCCCN)C(N)=O [PL-17] (Ac-[dF][dK][dR][dL][dE][dK][dL][dF][dS][dK][dI][dW][dN][dW][dK]-NH2) |  |  |  |  |  |  | 0.033 | 0.056 | 0.063 | 0.065 | 0.078 | 0.082 | 0.152 | 0.339 | little hemolytic toxicity
